pIC50: −log10 of the molar value.
System: 422866-222-R5-J1-PDC spheroid viability
Assay: Anticancer human tumor 422866-222-R5-J1-PDC patient-derived pancreatic adenocarcinoma cell line growth inhibition [CLK]
Details: spheroids with HUVEC and MSC; for pIC50: curve of first compound; for viability, T/C: stronger effect = lower value
How it was run: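 Multi-cell-type spheroids combined patient-derived tumor cells with HUVEC endothelial cells and human mesenchymal stem cells. Paired agents were dosed in half-log steps down from about clinical Cmax, or from 10 microM where Cmax was unknown.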

[1] = second compound 0.0316 µM, first compound 0.0316 µM
[2] = second compound 0.0316 µM, first compound 0.1 µM
[3] = second compound 0.0316 µM, first compound 0.316 µM
[4] = second compound 0.0316 µM, first compound 1 µM
[5] = second compound 0.0316 µM, first compound 3.16 µM
[6] = second compound 0.0316 µM, first compound 10 µM
[7] = second compound 0.1 µM, first compound 0.0316 µM
[8] = second compound 0.1 µM, first compound 0.1 µM
[9] = second compound 0.1 µM, first compound 0.316 µM
[10] = second compound 0.1 µM, first compound 1 µM
[11] = second compound 0.1 µM, first compound 3.16 µM
[12] = second compound 0.1 µM, first compound 10 µM
[13] = second compound 0.316 µM, first compound 0.0316 µM
[14] = second compound 0.316 µM, first compound 0.1 µM
[15] = second compound 0.316 µM, first compound 0.316 µM
[16] = second compound 0.316 µM, first compound 1 µM
[17] = second compound 0.316 µM, first compound 3.16 µM
[18] = second compound 0.316 µM, first compound 10 µM
[19] = second compound 1 µM, first compound 0.0316 µM
[20] = second compound 1 µM, first compound 0.1 µM
[21] = second compound 1 µM, first compound 0.316 µM
[22] = second compound 1 µM, first compound 1 µM
[23] = second compound 1 µM, first compound 3.16 µM
[24] = second compound 1 µM, first compound 10 µM
[25] = second compound 3.16 µM, first compound 0.0316 µM
[26] = second compound 3.16 µM, first compound 0.1 µM
[27] = second compound 3.16 µM, first compound 0.316 µM
[28] = second compound 3.16 µM, first compound 1 µM
[29] = second compound 3.16 µM, first compound 3.16 µM
[30] = second compound 3.16 µM, first compound 10 µM
[31] = second compound 10 µM, first compound 0.0316 µM
[32] = second compound 10 µM, first compound 0.1 µM
[33] = second compound 10 µM, first compound 0.316 µM
[34] = second compound 10 µM, first compound 1 µM
[35] = second compound 10 µM, first compound 3.16 µM
[36] = second compound 10 µM, first compound 10 µM
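Also: spheroids exposed to agents for seven days before readout.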

C#Cc1c(F)ccc2cc(O)cc(-c3ncc4c(N5CC6CCC(C5)N6)nc(OCC56CCCN5CC(F)C6)nc4c3F)c12 (centres undefined) + CN1CCN(c2cc(C(=O)Nc3cc4cc(-c5cnn(C)c5)ccc4cn3)ccn2)CC1
pIC50 (second compound 0.0316 µM): 5.81
pIC50 (second compound 0.1 µM): 5.75
pIC50 (second compound 0.316 µM): 5.92
pIC50 (second compound 1 µM): > 7.50
pIC50 (second compound 3.16 µM): > 7.50
pIC50 (second compound 10 µM): > 7.50
viability, T/C [1]: 99.1%
viability, T/C [2]: 100%
viability, T/C [3]: 70.7%
viability, T/C [4]: 60.9%
viability, T/C [5]: 37.4%
viability, T/C [6]: 33.9%
viability, T/C [7]: 100%
viability, T/C [8]: 113%
viability, T/C [9]: 74.7%
viability, T/C [10]: 60.5%
viability, T/C [11]: 45.3%
viability, T/C [12]: 33.4%
viability, T/C [13]: 105%
viability, T/C [14]: 83.4%
viability, T/C [15]: 68.4%
viability, T/C [16]: 50.5%
viability, T/C [17]: 41.4%
viability, T/C [18]: 26.8%
viability, T/C [19]: 35.7%
viability, T/C [20]: 35.1%
viability, T/C [21]: 38%
viability, T/C [22]: 27.2%
viability, T/C [23]: 24.3%
viability, T/C [24]: 19%
viability, T/C [25]: 11.2%
viability, T/C [26]: 11.9%
viability, T/C [27]: 7.84%
viability, T/C [28]: 7.25%
viability, T/C [29]: 5.39%
viability, T/C [30]: 7.56%
viability, T/C [31]: 5.16%
viability, T/C [32]: 2.81%
viability, T/C [33]: 1.05%
viability, T/C [34]: 1.26%
viability, T/C [35]: 1.28%
viability, T/C [36]: 4.84%

CC(CO)NC(=O)c1cc(-c2ccc(Cl)cc2)nn(-c2cnn(C)c2)c1=O (centres undefined) + CN1CCN(c2cc(C(=O)Nc3cc4cc(-c5cnn(C)c5)ccc4cn3)ccn2)CC1
pIC50 (second compound 0.0316 µM): < 5.00
pIC50 (second compound 0.1 µM): < 5.00
pIC50 (second compound 0.316 µM): < 5.00
pIC50 (second compound 1 µM): > 7.50
pIC50 (second compound 3.16 µM): > 7.50
pIC50 (second compound 10 µM): > 7.50
viability, T/C [1]: 115%
viability, T/C [2]: 104%
viability, T/C [3]: 106%
viability, T/C [4]: 135%
viability, T/C [5]: 106%
viability, T/C [6]: 75.7%
viability, T/C [7]: 115%
viability, T/C [8]: 118%
viability, T/C [9]: 104%
viability, T/C [10]: 116%
viability, T/C [11]: 104%
viability, T/C [12]: 82.6%
viability, T/C [13]: 107%
viability, T/C [14]: 93.5%
viability, T/C [15]: 86.9%
viability, T/C [16]: 88.7%
viability, T/C [17]: 80.8%
viability, T/C [18]: 68.8%
viability, T/C [19]: 30.9%
viability, T/C [20]: 27.6%
viability, T/C [21]: 31.6%
viability, T/C [22]: 31.1%
viability, T/C [23]: 31.3%
viability, T/C [24]: 32%
viability, T/C [25]: 13.1%
viability, T/C [26]: 13.4%
viability, T/C [27]: 12.1%
viability, T/C [28]: 12%
viability, T/C [29]: 11.5%
viability, T/C [30]: 13.6%
viability, T/C [31]: 2.51%
viability, T/C [32]: 3.09%
viability, T/C [33]: 1.44%
viability, T/C [34]: 2.25%
viability, T/C [35]: 3.26%
viability, T/C [36]: 1.54%

From PubChem BioAssay AID2060603 (Molecular Pharmacology Branch, DTP, NCI, 2025)
